Laboratory results as given in patent US4444776A, “Dipyrido (4,3-B) (3,4-F) indoles, process for obtaining them, therapeutical use and pharmaceutical compositions” (priority 1977, dated 1984).

Assays:
Lewis carcinoma (3LL) = test: Test 13: Lewis carcinoma, antimetastasic effect; assay type: in vivo, BDF1 mice; conditions: for MST: controls 25
Protocol: "carcinome pulmonaire de Lewis" (3LL), K. SUGIURA and C. C. STOCK," Cancer Res. 1955 15 38-51.
In this test, cells (10^6 cells) removed from a tumour-carrying mouse were injected into mice(BDF1) by the IM route. The mice developed, 10 to 15 days after the inoculation, a tumour at the spot where the injection was made. On the other hand, these cells made metastasis in the lung, forming colonies on the pulmonary surface. The antitumoral and antimetastasic effect of a product may therefore be judged on mice thus treated.
Investigation of the antimetastasic effect of the compounds of examples 7 and 8 of the invention
10^6 cells taken from a tumour-carrying mouse were injected by the IM route (left-band paw) into groups of 10 mice and the compounds to be tested were inoculated by the IP route on day J+5 by single or fractioned injection. The mean survival time (MST) and the increased life span (ILS %) were determined.

leukemic cells = test: Test 20: combination of compound 21 with other drugs (Table XV); conditions: 10^5 cells, BD 40 20 mg/kg day +4, Endoxan 100 mg/kg day +3
Protocol: A priming dose of endoxan (100 mg/kg) was given 3 days after 10^5 leukemic cells (20 mice).

L1210 cells = test: Test 19: effect of time of administration, L1210 (Table XIV); assay type: in vivo, mouse; design: MST: unit not given beside the values; conditions: 20 mg/kg IP
Text: Test 19: Effect of the time of administration of compound 21
The non-protective effect at day+7 could be explained by the fact that some cells migrate through a compartment inaccessible to the drug (as postulated by J. B. Le Pecq for the 9-hydroxy-ellipticine).

L1210 leukemia = test: Test 16: structure-activity of R'1 substitution, L1210 (Table XII); assay type: in vivo, mouse (C57B16xDBA/2)F1; design: MST: unit not given here; conditions: for 60 days surv. / ILS % / MST / Range of death: day +1
Protocol: Test 16: Relationship between structure and activity of various dipyrido indoles differing by the R'1 substitution.
L1210 leukemia has been maintained by weekly passages on (C57B16xDBA/2)F1 mice. On day 0, mice were inoculated by I.P. route with various numbers of L1210 ascitic tumor cells in volumes of 0.1 ml. Subsequently as indicated, drugs were administrated in Ca^++ and Mg^++ free PBS solutions (Gibco) or in Mac Coy's medium (Gibso or Microbiological Associates). […]

mice = test: Test 21: toxicity after intraperitoneal injection
Protocol: All drugs were dissolved in aqueous solutions adjusted at pH 5 with acetic acid and inoculated to the mice under a volume of 0.1 ml I.P. after dilution in Mac Coy's medium.
The toxicity of the drugs after intraperitoneal injection was estimated from the mortality rate up to the 30th day.

[1] = tested on: DNA synthesis in HS5 cells; test: Test 6: action on DNA synthesis (14C methyl-thymidine incorporation); assay type: cell-based, hamster; conditions: in the hours following its addition
Protocol: Test 6: Action on the macromolecular syntheses
The action of the compounds according to the invention was studied by the incorporation of precursors marked by radioactive isotopes:
^14 C methyl-thymidine for studying the DNA synthesis
These precursors were given for a period of 30 minutes at varying times after the addition of the product to be tested.
The incorporation is measured after lysis of the cells for 1% of sodium dodecylsulfate and precipitation by 5% of trichloroacetic acid. The […] precipitate was collected on glass fibre Whatman GF/A filters. The filters were dried and counted in a liquid scintillation spectrometer.

Friend leukemia virus = test: Test 2: viro-induced Friend leukemia (Table II); assay type: in vivo, DBA2 mice; conditions: for mean spleen weight (range): 21 days after virus; for ILS % / Weight of the spleens on the 21st day / Mean survival time (first-last death): VFA 1/250, 5 hrs after the virus
Text: The protective power of the compounds according to the invention have also been sought on the Friend viro-induced leukemia (J. Exp. Med. 1957-105-307-318) and it has been determined that the compounds according to the invention are antiviral and antitumoral agents in lower animals.
Test 2. Viro-induced Leukemia: Friend leukemia
The protective power of the compounds according to the invention was sought on Friend leukemia, inoculated into DBA2 mice aged from 5-6 weeks. The viral inoculum was produced from a homogenate of leukemic spleen (p/volume) diluted to 1/250 in isotonic phosphate buffer without Ca^++ nor Mg^++ (PBS), corresponding to 100 SD 50 (i.e. to the dose of virus which induces a splenomegaly in 50% of the inoculated mice).
The virus was injected by the IP route and in a volume of 0.2 ml. The product to be tested was injected 5 hours after the virus or 1 day after the virus at the dose indicated in a volume of 0.1 ml (IP route). Each group of twenty control mice received the virus and a placebo or the product to be tested, 10 mice were sacrified on the 21st day, and their spleen removed and weighed. The mice were considered as leukemic when the weight of their spleen exceed 200 mg. For the 10 mice, the life span of the animals was determined.

[2] = 4 injections J+5+6+10+11, 2.5 mg/kg each
[3] = 10^4 cells, 5 mg/kg, control MST 11.8
[4] = second group: 10^4 cells, 5 mg/kg, control MST 10.9

Structure (SMILES): CCN(CC)CCCNc1nccc2c(C)c3[nH]c4ccncc4c3cc12 [Example 7, 1-(γ-diethylaminopropyl)amino-5-methyl-dipyrido-[4,3-b][3,4-f] indole]
- ILS % (Lewis carcinoma (3LL); 1 injection J+5, 10 mg/kg): 30.8%
- MST (Lewis carcinoma (3LL); 1 injection J+5, 10 mg/kg): 32.7
- ILS % (Lewis carcinoma (3LL); [2]): 9.6%
- MST (Lewis carcinoma (3LL); [2]): 27.4
- protective action concerning metastasic pulmonary invasion of the lung (Lewis carcinoma (3LL); IP from J+5): give a protective action
- pulmonary metastases counted (Lewis carcinoma (3LL); one mouse sacrificed day J+22, one injection J+5, non-treated mouse 77): 35
- ILS % (leukemic cells; BCNU 2 mg/kg): 65.2%
- Range of death (leukemic cells; BCNU 2 mg/kg immediately after endoxan): 14-32
- MST (leukemic cells; BCNU 2 mg/kg, control 11.2): 18.5
- ILS % (L1210 cells; day +2): 56.4%
- MST (L1210 cells; day +2): 15.8
- Range of death (L1210 cells; day +2, 10^4 cells): 15-17
- MST (L1210 cells; day +3): 14.4
- Range of death (L1210 cells; day +3): 12-17
- ILS % (L1210 cells; day +3, listed as BD 40): 43.0%
- ILS % (L1210 cells; day +3, listed as Compound 21): 43%
- ILS % (L1210 cells; day +4): 22.8%
- MST (L1210 cells; day +4): 12.4
- Range of death (L1210 cells; day +4): 10-14
- ILS % (L1210 cells; day +5): 17.8%
- MST (L1210 cells; day +5): 11.9
- Range of death (L1210 cells; day +5): 10-13
- ILS % (L1210 cells; day +6): 20.8%
- MST (L1210 cells; day +6): 12.2
- Range of death (L1210 cells; day +6): 10-14
- MST (L1210 cells; day +7): 10.3
- Range of death (L1210 cells; day +7): 10-13
- ILS % (L1210 cells; day +7, listed as BD 40): 2.0%
- ILS % (L1210 cells; day +7, listed as Compound 21): 2%
- 60 days surv. (L1210 leukemia; 10^3 cells, 0.5 mg/kg): 3
- ILS % (L1210 leukemia; 10^3 cells, 0.5 mg/kg): 17.4%
- MST (L1210 leukemia; 10^3 cells, 0.5 mg/kg): 16.2
- Range of death (L1210 leukemia; 10^3 cells, 0.5 mg/kg): 14-20
- 60 days surv. (L1210 leukemia; 10^3 cells, 5 mg/kg): 5
- ILS % (L1210 leukemia; 10^3 cells, 5 mg/kg): 23.2%
- MST (L1210 leukemia; 10^3 cells, 5 mg/kg): 17
- Range of death (L1210 leukemia; 10^3 cells, 5 mg/kg): 15-22
- 60 days surv. (L1210 leukemia; 10^4 cells, 0.5 mg/kg): 0
- ILS % (L1210 leukemia; 10^4 cells, 0.5 mg/kg): 11.5%
- MST (L1210 leukemia; 10^4 cells, 0.5 mg/kg): 13.54
- Range of death (L1210 leukemia; 10^4 cells, 0.5 mg/kg): 11-15
- 60 days surv. (L1210 leukemia; [3]): 1
- ILS % (L1210 leukemia; [3]): 33.3%
- MST (L1210 leukemia; [3]): 16.2
- Range of death (L1210 leukemia; [3]): 13-21
- antitumoral activity compared with Ellipticinium acetate (HUM) (L1210 leukemia; Table XII summary): compete favorably with Ellipticinium acetate (HUM)
- 60 days surv. (L1210 leukemia; [4]): 1
- ILS % (L1210 leukemia; [4]): 65.1%
- MST (L1210 leukemia; [4]): 18
- Range of death (L1210 leukemia; [4]): 14-21
- time of deaths after drug administration (mice; IP): 4 to 8 days
- minimal quantity resulting in 100% deaths (mice; IP, mortality up to the 30th day): 50 mg/kg
- toxicity (toxic dose) (mice; Test 17 text): 50 mg/kg

Structure (SMILES): Cc1c2ccncc2c(C)c2c1[nH]c1ccncc12 [Example 1, 5,11-dimethyl dipyrido [4,3-b][3,4-f] indole]
- DNA and RNA syntheses [1]: reduces very rapidly
- mean spleen weight (range) (Friend leukemia virus; 25 mg/kg): 1,803 (718-2,635) mg
- mean spleen weight (range) (Friend leukemia virus; 50 mg/kg): 960 (373-1,230) mg
- ILS % (Friend leukemia virus; 0.1 mg): 59.5%
- Weight of the spleens on the 21st day (Friend leukemia virus; 0.1 mg): 2013 mg
- Mean survival time (first-last death) (Friend leukemia virus; 0.1 mg, IP): 47.6 (26-78) Days
- ILS % (Friend leukemia virus; 0.5 mg): 14.6%
- Mean survival time (first-last death) (Friend leukemia virus; 0.5 mg): 34.2 (22.54) Days
- Weight of the spleens on the 21st day (Friend leukemia virus; 0.5 mg): 1803 mg
- ILS % (Friend leukemia virus; 1 mg): 39.7%
- Mean survival time (first-last death) (Friend leukemia virus; 1 mg): 41.7 (14-81) Days
- Weight of the spleens on the 21st day (Friend leukemia virus; 1 mg): 959,6 mg
